Experiments:
[1] = system: RKO (RKOp27) human colon adenocarcinoma cells; assay: Alamar Blue cell viability assay, anti-proliferative/cytotoxic activity on proliferating RKO subclones; type: cell-based; settings: RKOp27, 72 h, RKO p27 uninduced (proliferating) cells, value = class bound given in Table A, read-out: −logIC50 RKO p27 uninduced (proliferating) (converted)
Method: The anti-proliferative/cytotoxic activity of the compounds described herein, can be tested on subclones of RKO (RKOp27) human colon adenocarcinoma cells (Schmidt et al., Oncogene 19, 2423-2429; 2000) using the Alamar Blue cell viability assay (described in O'Brien et al. Eur J Biochem 267, 5421-5426, 2000). The compounds are dissolved as 20 mM solutions in dimethylsulfoxide (DMSO) and subsequently diluted in semi-logarithmic steps. DMSO dilutions are further diluted 1:100 into Dulbecco's modified Eagle's medium (DMEM) containing 10% fetal calf serum to a final concentration twice as much as the final concentration in the test. RKO subclones are seeded into 96 well flat bottom plates at a density of 5000 cells per well in a volume of 50 μl per well. 24 hours after seeding the 50 μl each of the compound dilutions in DMEM medium are added into each well of the 96 Well plate. Each compound dilution is tested as quadruplicates. Wells containing untreated control cells are filled with 50 μl DMEM medium containing 1% DMSO. The cells are then incubated with the substances for 72 hours at 37° C. in a hunified atmosphere containing 5% carbon dioxide. To determine the viability of the cells, 10 μl of an Alamar Blue solution (Biosource) are added and the fluorescence is measured at an extinction of 544 nm and an emission of 590 nm. For the calculation of the cell viability the emission value from untreated cells is set as 100% viability and the emission rates of treated cells are set in relation to the values of untreated cells. Viabilities are expressed as % values.
The corresponding IC50 values of the compounds for anti-proliferative/cytotoxic activity are determined from the concentration-effect curves.
(§1) Representative −log IC50 [mol/l] values for anti-proliferation/cytotoxicity determined in the mentioned assays follow from the following table A, in which the numbers of the compound correspond to the numbers of the examples.

[2] = system: subclones of RKO colon adenocarcinoma cells (RKOp27 or RKOp21) arrested by Ponasterone A; assay: Alamar Blue cell viability assay, cell cycle specific mode of action: cells arrested by ectopic p27Kip1 induced by Ponasterone A versus proliferating cells; type: cell-based; settings: Homo sapiens, RKO p27 induced (arrested) cells, 10 μM Ponasterone A, 72 hours, value = class bound given in Table A, read-out: −logIC50 RKO p27 induced (arrested) (converted)
Method: To determine the cell cycle specific mode of action, subclones of RKO colon adenocarcinoma cells (RKOp27 or RKOp21 as described by Schmidt et al. in Oncogene 19, 2423-2429; 2000) are seeded into 96 well flat bottom plates at a density of 15000 cells per well in a volume of 50 μl per well in DMEM growth medium with 10% FCS containing 10 μM Ponasterone A. 24 hours after seeding the 50 μl each of the compound dilutions in DMEM medium are added into each well of the 96 Well plate. Each compound dilution is tested as quadruplicates. Wells containing untreated control cells are filled with 50 μl DMEM medium containing 1% DMSO. The cells are then incubated with the substances for 72 hours at 37° C. in a humidified athmosphere containing 5% carbon dioxide. To determine the viability of the cells, 10 μl of an Alamar Blue solution (Biosource) are added and the fluorescence was measured at an extinction of 544 nm and an emission of 590 nm. For the calculation of the cell viability the emission value from untreated cells is set as 100% viability and the emission rates of treated cells are set in relation to the values of untreated cells. Viabilities are expressed as % values. Viability is compared of proliferating cells grown in the absence of the inducer Ponasterone A, versus viability of cells arrested by the expression of ectopic p27Kip1 induced by Ponasterone A.
as §1

SMILES | IC50 [2] [nM] | IC50 [1] [nM]
Cc1cc(CNC(=O)OCC2CCc3c(sc(NC(=O)/C=C/c4cccnc4)c3C#N)C2)no1 (stereo not drawn) [Example 47, (5-Methyl-isoxazol-3-ylmethyl)-carbamic acid 3-cyano-2-((E)-3-pyridin-3-yl-allanoylamino)-4,5,6,7-tetrahydro-benzo[b]thiophen-6-ylmethyl ester] | ≥ 100000 | ≤ 501
Cc1cc(CNC(=O)OC[C@H]2CCc3c(sc(NC(=O)/C=C/c4cccnc4)c3C#N)C2)no1 [Example 47a, (S)-(5-Methyl-isoxazol-3-ylmethyl)-carbamic acid 3-cyano-2-((E)-3-pyridin-3-yl-allanoylamino)-4,5,6,7-tetrahydro-benzo[b]thiophen-6-ylmethyl ester] | ≥ 100000 | ≤ 501
Cc1cc(CNC(=O)OC[C@@H]2CCc3c(sc(NC(=O)/C=C/c4cccnc4)c3C#N)C2)no1 [Example 47b, (5-Methyl-isoxazol-3-ylmethyl)-carbamic acid (R)-3-cyano-2-((E)-3-pyridin-3-yl-allanoylamino)-4,5,6,7-tetrahydro-benzo[b]thiophen-6-ylmethyl ester] | ≥ 100000 | ≤ 501
COC(=O)OCC1CCc2c(sc(NC(=O)/C=C/c3cccnc3)c2C#N)C1 (stereo not drawn) [Example 49, Carbonic acid 3-cyano-2-((E)-3-pyridin-3-yl-allanoylamino)-4,5,6,7-tetrahydro-benzo[b]thiophen-6-ylmethyl ester methyl ester] | ≥ 100000 | 501 to 2000
Cn1cc(CNC(=O)OCC2CCc3c(sc(NC(=O)/C=C/c4cccnc4)c3C#N)C2)cn1 (stereo not drawn) [Example 50, (1-Methyl-1H-pyrazol-4-ylmethyl)-carbamic acid 3-cyano-2-((E)-3-pyridin-3-yl-allanoylamino)-4,5,6,7-tetrahydro-benzo[b]thiophen-6-ylmethyl ester] | ≥ 100000 | ≤ 501
Cn1cccc1CNC(=O)OCC1CCc2c(sc(NC(=O)/C=C/c3cccnc3)c2C#N)C1 (stereo not drawn) [Example 51, (1-Methyl-1H-pyrrol-2-ylmethyl)-carbamic acid 3-cyano-2-((E)-3-pyridin-3-yl-allanoylamino)-4,5,6,7-tetrahydro-benzo[b]thiophen-6-ylmethyl ester] | ≥ 100000 | 501 to 2000
CCn1nccc1CNC(=O)OCC1CCc2c(sc(NC(=O)/C=C/c3cccnc3)c2C#N)C1 (stereo not drawn) [Example 52, (2-Ethyl-2H-pyrazol-3-ylmethyl)-carbamic acid 3-cyano-2-((E)-3-pyridin-3-yl-allanoylamino)-4,5,6,7-tetrahydro-benzo[b]thiophen-6-ylmethyl ester] | ≥ 100000 | 501 to 2000
Cn1cnc(CNC(=O)OC2CCc3c(sc(NC(=O)/C=C/c4cccnc4)c3C#N)C2)c1 (stereo not drawn) [Example 53, (1-Methyl-1H-imidazol-4-ylmethyl)-carbamic acid 3-cyano-2-((E)-3-pyridin-3-yl-allanoylamino)-4,5,6,7-tetrahydro-benzo[b]thiophen-6-yl ester] | ≥ 100000 | 501 to 2000
Cc1nn(C)cc1CNC(=O)OCC1CCc2c(sc(NC(=O)/C=C/c3cccnc3)c2C#N)C1 (stereo not drawn) [Example 54, (1,3-Dimethyl-1H-pyrazol-4-ylmethyl)-carbamic acid 3-cyano-2-((E)-3-pyridin-3-yl-allanoylamino)-4,5,6,7-tetrahydro-benzo[b]thiophen-6-ylmethyl ester] | ≥ 100000 | ≤ 501
COC(=O)OC1CCc2c(sc(NC(=O)/C=C/c3cccnc3)c2C#N)C1 (stereo not drawn) [Example 55, Carbonic acid 3-cyano-2-((E)-3-pyridin-3-yl-allanoylamino)-4,5,6,7-tetrahydro-benzo[b]thiophen-6-yl ester methyl ester] | ≥ 100000 | ≤ 501
Cn1cccc1CNC(=O)OC1CCc2c(sc(NC(=O)/C=C/c3cccnc3)c2C#N)C1 (stereo not drawn) [Example 56, (1-Methyl-1H-pyrrol-2-ylmethyl)-carbamic acid 3-cyano-2-((E)-3-pyridin-3-yl-allanoylamino)-4,5,6,7-tetrahydro-benzo[b]thiophen-6-yl ester] | ≥ 100000 | ≤ 501

Now from value to molecule, other results behind:

IC50 [2] [nM] | SMILES | IC50 [1] [nM]
≥ 100000 | Cc1nn(C)cc1CNC(=O)OC1CCc2c(sc(NC(=O)/C=C/c3cccnc3)c2C#N)C1 (stereo not drawn) [Example 57, (1,3-Dimethyl-1H-pyrazol-4-ylmethyl)-carbamic acid 3-cyano-2-((E)-3-pyridin-3-yl-allanoylamino)-4,5,6,7-tetrahydro-benzo[b]thiophen-6-yl ester] | ≤ 501
≥ 100000 | Cc1oncc1CNC(=O)OC1CCc2c(sc(NC(=O)/C=C/c3cccnc3)c2C#N)C1 (stereo not drawn) [Example 58, (5-Methyl-isoxazol-4-ylmethyl)-carbamic acid 3-cyano-2-((E)-3-pyridin-3-yl-allanoylamino)-4,5,6,7-tetrahydro-benzo[b]thiophen-6-yl ester] | 501 to 2000
≥ 100000 | Cc1nocc1CNC(=O)OC1CCc2c(sc(NC(=O)/C=C/c3cccnc3)c2C#N)C1 (stereo not drawn) [Example 59, (3-Methyl-isoxazol-4-ylmethyl)-carbamic acid 3-cyano-2-((E)-3-pyridin-3-yl-allanoylamino)-4,5,6,7-tetrahydro-benzo[b]thiophen-6-yl ester] | ≤ 501
≥ 100000 | N#Cc1c(NC(=O)/C=C/c2cccnc2)sc2c1CCC(OC(=O)NCc1ccno1)C2 (stereo not drawn) [Example 60, Isoxazol-5-ylmethyl-carbamic acid 3-cyano-2-((E)-3-pyridin-3-yl-allanoylamino)-4,5,6,7-tetrahydro-benzo[b]thiophen-6-yl ester] | 501 to 2000
≥ 100000 | N#Cc1c(NC(=O)/C=C/c2cccnc2)sc2c1CCC(OC(=O)N1CCOCC1)C2 (stereo not drawn) [Example 61, Morpholine-4-carboxylic acid 3-cyano-2-((E)-3-pyridin-3-yl-allanoylamino)-4,5,6,7-tetrahydro-benzo[b]thiophen-6-yl ester] | ≤ 501
≥ 100000 | N#Cc1c(NC(=O)/C=C/c2cccnc2)sc2c1CCC(OC(=O)N1CCCC1)C2 (stereo not drawn) [Example 62, Pyrrolidine-1-carboxylic acid 3-cyano-2-((E)-3-pyridin-3-yl-allanoylamino)-4,5,6,7-tetrahydro-benzo[b]thiophen-6-yl ester] | ≤ 501
≥ 100000 | N#Cc1c(NC(=O)/C=C/c2cccnc2)sc2c1CCC(COC(=O)NCC1CCCO1)C2 (stereo not drawn) [Example 63, (Tetrahydro-furan-2-ylmethyl)-carbamic acid 3-cyano-2-((E)-3-pyridin-3-yl-allanoylamino)-4,5,6,7-tetrahydro-benzo[b]thiophen-6-ylmethyl ester] | 501 to 2000
≥ 100000 | Cc1nocc1CNC(=O)OCC1CCc2c(sc(NC(=O)/C=C/c3cccnc3)c2C#N)C1 (stereo not drawn) [Example 64, (3-Methyl-isoxazol-4-ylmethyl)-carbamic acid 3-cyano-2-((E)-3-pyridin-3-yl-allanoylamino)-4,5,6,7-tetrahydro-benzo[b]thiophen-6-ylmethyl ester] | 501 to 2000
≥ 100000 | N#Cc1c(NC(=O)/C=C/c2cccnc2)sc2c1CCC(COC(=O)NCc1nccs1)C2 (stereo not drawn) [Example 65, Thiazol-2-ylmethyl-carbamic acid 3-cyano-2-((E)-3-pyridin-3-yl-allanoylamino)-4,5,6,7-tetrahydro-benzo[b]thiophen-6-ylmethyl ester] | 501 to 2000
≥ 100000 | Cc1nc(CNC(=O)OCC2CCc3c(sc(NC(=O)/C=C/c4cccnc4)c3C#N)C2)cs1 (stereo not drawn) [Example 66, (2-Methyl-thiazol-4-ylmethyl)-carbamic acid 3-cyano-2-((E)-3-pyridin-3-yl-allanoylamino)-4,5,6,7-tetrahydro-benzo[b]thiophen-6-ylmethyl ester] | ≤ 501

Reference: patent publication US20110044938A1 (NYCOMED GMBH, priority 2006, published 2011)
